This passage reports viability results from publication PMC12040169 (PLOS Biology, 2025).

A short description of the series: in vitro. As to conditions: human, hela cells, % viability.

SMILES strings stand for the structures.

Broadly, the viability is a read-out of living cells in per cent, often relative to untreated cells. As for `COc1ccc(C)cc1NC(=O)CN(c1ccccc1)S(=O)(=O)c1ccc(F)cc1` [CBK268223], the viability at 28.5 h, 10 µM amounted to 99.1%.

On to `O=[N+]([O-])c1ccc(NCCNCCO)c(Cl)c1` [CBK261006], for which the viability at 28.5 h, 10 µM was determined as 97.5%.

For `CC(=O)N1CCc2cc(C(O)CN3CCN(c4nsc5ccccc45)CC3)ccc21` (stereo not drawn) [CBK283092], the viability at 28.5 h, 10 µM is 93.3%.

For `CN(C)CCN(C)C(=O)Cc1csc(-c2cccc(Cl)c2)n1` [CBK282176], the viability at 28.5 h, 10 µM worked out at 111%.

In the case of `CC(C)CNc1ncc(-c2ccc(N3CCOCC3)cc2)n2ccnc12` [CBK091273], the viability at 28.5 h, 10 µM is 101%.

With `Cc1cc(C)c(S(=O)(=O)N2CCC(C(=O)NNC(=S)NC3CCCC3)CC2)c(C)c1` [CBK266844], the viability at 28.5 h, 10 µM worked out at 98.4%.

As for `Cc1nn(C)c(Cl)c1S(=O)(=O)Nc1ccc2cc(Br)cnc2n1` [CBK073892], the viability at 28.5 h, 10 µM came to 78.3%.

Turning to `COc1cccc2ncn(Cc3n[nH]c(C)n3)c(=O)c12` [CBK306938], the viability at 28.5 h, 10 µM came out at 89.7%.

Turning to `Cc1nc(COc2ccc(C(=O)Nc3ccc(C(=O)O)cc3C)cc2)cs1` [CBK295360], the viability at 28.5 h, 10 µM is 91.3%.

Turning to `Cc1ccccc1OCCCn1cncc1-c1cnn(C)c1` [CBK281762], the viability at 28.5 h, 10 µM turned out to be 91.1%.

`O=C(c1ccc(F)cc1)N1C[C@H](c2ccsc2)[C@H]2CN(Cc3cccs3)CC[C@H]21` [CBK285636]: the viability at 28.5 h, 10 µM turned out to be 114%.

Take `CN(C)CCN(Cc1ccccc1)Cc1ccc([N+](=O)[O-])cc1` [CBK261929]: the viability at 28.5 h, 10 µM turned out to be 87.8%.

Take `CC(C)(C)C(=O)Nc1ccc(C(=O)Nc2cccc(C(=O)O)c2)cc1` [CBK261329]: the viability at 28.5 h, 10 µM came to 94.8%.

As for `O=C(/C=C/c1c(Cl)cccc1Cl)Nc1ccc(S(=O)(=O)Nc2ncccn2)cc1` [CBK265490], the viability at 28.5 h, 10 µM turned out to be 98.8%.

Turning to `CC(C)(C)C(=O)N1CC(n2nc(-c3ccccc3)ccc2=O)C1` [CBK284623], the viability at 28.5 h, 10 µM worked out at 92.1%.

Regarding `O=C(c1cn2cc(-c3cccs3)n(CC3CC3)c(=O)c2n1)N1CC(O)C1` [CBK306979], the viability at 28.5 h, 10 µM came to 97.4%.

As to `Cc1cc(CN(C)c2nccc(N3CCN[C@H]4CS(=O)(=O)C[C@H]43)n2)no1` [CBK306580], the viability at 28.5 h, 10 µM is 109%.

On to `Cc1ccc(/N=N/c2c(O)c(C(=O)Nc3ccc4c(c3)c(=O)[nH]c3ccccc34)cc3ccccc23)c(Cl)c1` [CBK262306], for which the viability at 28.5 h, 10 µM amounted to 92.7%.

As for `O=c1n(C(c2ccccc2)c2ccccc2)ccn1S(=O)(=O)c1ccc2ccccc2c1` [CBK106623], the viability at 28.5 h, 10 µM was found to be 94.6%.

For `Cc1c(C)n(CC(=O)O)c2ccccc12` [CBK000884], the viability at 28.5 h, 10 µM came out at 97%.

For `CC(=O)Nc1ccc(S(=O)(=O)NNC(=O)c2cccc(Cl)c2)cc1` [CBK261694], the viability at 28.5 h, 10 µM was 89.4%.

Consider `Cc1cc(C)nc(NC(=O)OCCN2CCN(C)CC2)c1` [CBK138235], for which the viability at 28.5 h, 10 µM was determined as 92.2%.

Regarding `CCN(Cc1ccco1)C(=O)Cn1c(=O)n(C)c2ncccc21` [CBK282390], the viability at 28.5 h, 10 µM amounted to 99.3%.

Consider `COC(=O)[C@@H]1Cc2ncn(Cc3ccc(Cl)cc3)c2CN1C(=O)c1ccc(OC)cc1` [CBK288983], for which the viability at 28.5 h, 10 µM worked out at 84.2%.

`COc1cccc(OC)c1OCCN1CCC(C(=O)NC(c2ccccc2)c2ccccn2)CC1` (stereo not drawn) [CBK148419]: the viability at 28.5 h, 10 µM turned out to be 96.3%.

`CCOC(=O)CS(=O)(=O)Cc1cc(Cl)nc(Cl)c1` [CBK005544]: the viability at 28.5 h, 10 µM was determined as 109%.

On to `Nc1nc(-c2ccccc2)c(C(=O)Nc2ccccc2)s1` [CBK058068], for which the viability at 28.5 h, 10 µM was 95.2%.

Regarding `COC(=O)c1ccc(CN2CCN(CCN3C(=O)c4cccc5cccc(c45)C3=O)CC2)cc1` [CBK074518], the viability at 28.5 h, 10 µM came out at 88.8%.

With `COc1ccccc1C(=O)Nc1nc2ccc(NC(C)=O)cc2s1` [CBK287303], the viability at 28.5 h, 10 µM was 88.3%.

Consider `CCCC/C=C/c1cnc2[nH]c(=O)n([C@H](C)c3ccccc3)c2n1` [CBK064182], for which the viability at 28.5 h, 10 µM was 99.7%.

For the molecule `Cc1ccc(C)c2[nH]c(=O)c(CN(CCN3CCOCC3)Cc3nnnn3Cc3ccccc3)cc12` [CBK108063], the viability at 28.5 h, 10 µM is 93.1%.

With `Cc1oc2ccc(NS(=O)(=O)c3ccccc3)cc2c1C(=O)O` [CBK287071], the viability at 28.5 h, 10 µM was 95.3%.

On to `O=C(NC1CC1)c1ccsc1NC(=O)C1C2C=CC(C2)C1C(=O)O` (stereo not drawn) [CBK270322], for which the viability at 28.5 h, 10 µM stood at 98.7%.

Regarding `OCc1ccccc1-c1cn2ccnc2c(N[C@@H]2CCN(Cc3ccccc3)C2)n1` [CBK037969], the viability at 28.5 h, 10 µM stood at 104%.

`CC(=O)Nc1ccc(S(=O)(=O)NC2(C(F)(F)F)NC(=O)N(c3ccc(Cl)cc3)C2=O)cc1` (stereo not drawn) [CBK267689]: the viability at 28.5 h, 10 µM was determined as 95.7%.

Turning to `Fc1ccc2[nH]c3c(c2c1)CCOC31CCN(C/C=C\c2ccccc2)CC1` [CBK040141], the viability at 28.5 h, 10 µM was determined as 70.1%.

As for `COc1ccc2c(c1)CC(=O)NC21CCN(Cc2c(F)cccc2F)CC1` [CBK039835], the viability at 28.5 h, 10 µM is 93.8%.

With `O=C(CC1CCCC1)N1CCCC(c2nnc(-c3cccs3)o2)C1` (stereo not drawn) [CBK284631], the viability at 28.5 h, 10 µM was determined as 94.3%.

With `Cc1cc(/C=C(\C#N)c2nc3ccccc3[nH]2)c(C)n1-c1ccc(C(=O)O)cc1` [CBK267262], the viability at 28.5 h, 10 µM came to 94.7%.

For the molecule `COc1cc(C=CC(=O)O)ccc1OCC(=O)NCC(C)C` [CBK296721], the viability at 28.5 h, 10 µM was 107%.

As to `CCOC(=O)c1c(NC(=O)CSc2nnnn2C)sc2c1CCCC2` [CBK007332], the viability at 28.5 h, 10 µM was determined as 103%.

Regarding `COc1ccc(/C=N/NC(=O)CCc2c(C)n[nH]c2C)cc1O` [CBK262894], the viability at 28.5 h, 10 µM is 93.6%.

Turning to `O=C(OCCc1cccnc1)N1CCSCC1` [CBK200160], the viability at 28.5 h, 10 µM amounted to 103%.

With `O=C(NCCSCc1c(F)cccc1Cl)Nc1cccc(Cl)c1` [CBK268574], the viability at 28.5 h, 10 µM was 98.6%.

For `Cc1ccc2c(c1)OC1(CCN(C(=O)c3cc4c(C)nn(C)c4s3)CC1)CC2=O` [CBK166037], the viability at 28.5 h, 10 µM was found to be 79.5%.

In the case of `O=C(NC1CCCC1)c1ccc(-c2cnc3[nH]c(=O)n(CCCN4CCOCC4)c3n2)cc1` [CBK064829], the viability at 28.5 h, 10 µM turned out to be 102%.

Consider `COc1cccc2sc(Nc3nc4ccc(NC(C)=O)cc4s3)nc12` [CBK287468], for which the viability at 28.5 h, 10 µM stood at 94.9%.

For `CCOC(NC(=O)Nc1ccc(Br)cc1)(C(F)(F)F)C(F)(F)F` [CBK027208], the viability at 28.5 h, 10 µM was 91.2%.

As for `COc1ccccc1-c1[nH]nc(O)c1Cc1c(Cl)cccc1Cl` [CBK107933], the viability at 28.5 h, 10 µM was determined as 86.1%.

Turning to `COc1ccc(F)c(C2NC(=O)CCC2N)c1` (stereo not drawn) [CBK282905], the viability at 28.5 h, 10 µM was found to be 97.6%.

As for `COCCCn1c(=O)[nH]c2ncc(-c3cc(OC)c(OC)c(OC)c3)nc21` [CBK064937], the viability at 28.5 h, 10 µM amounted to 91.8%.

As for `CN(Cc1ccccc1)c1nccnc1-c1ccc(F)c(Cl)c1` [CBK037997], the viability at 28.5 h, 10 µM worked out at 107%.

In the case of `COCCNCCOc1c(Cl)cc(C)cc1Br` [CBK265087G], the viability at 28.5 h, 10 µM came out at 113%.

`O=C(C1CCOCC1)N1CCCC(c2cc3cccnc3[nH]2)C1` (stereo not drawn) [CBK284941]: the viability at 28.5 h, 10 µM amounted to 109%.

`CCS(=O)(=O)Nc1ccc(C2=NN(S(=O)(=O)c3ccc(F)cc3)C(c3ccccc3C)C2)cc1` (stereo not drawn) [CBK269161]: the viability at 28.5 h, 10 µM was determined as 103%.

Consider `CCCC/C=C/c1nccnc1NCC1CC1` [CBK037268], for which the viability at 28.5 h, 10 µM stood at 100%.

For the molecule `Cc1nn(C)c(C)c1CCC(=O)NCC1CN(c2ccccc2)CCO1` (stereo not drawn) [CBK307199], the viability at 28.5 h, 10 µM came out at 103%.

Consider `CC(=O)[C@H]1C[C@@H](CC(=O)Nc2cc3cccnc3nc2Cl)C1(C)C` [CBK091351], for which the viability at 28.5 h, 10 µM worked out at 95.7%.

In the case of `CN1C(=O)COc2ccccc2CCCC[C@@H]2[C@H]1CCCN2C(=O)Cn1ccnc1` [CBK292152], the viability at 28.5 h, 10 µM amounted to 110%.

`Cc1sc(NC(=O)C2C3C=CC(C3)C2C(=O)O)c(C(N)=O)c1C` (stereo not drawn) [CBK263685]: the viability at 28.5 h, 10 µM was found to be 87.6%.

As for `CC(C)(C(=O)N1CCC(CC(=O)NCCc2ccccc2F)CC1)c1ccc(F)cc1` [CBK286497], the viability at 28.5 h, 10 µM was found to be 104%.

For `Cc1nc(CN2CCCN(C(=O)c3cccc(C#N)c3)CC2)cs1` [CBK305363], the viability at 28.5 h, 10 µM came out at 83.6%.

As to `CC(C(=O)N(CCC#N)Cc1cccnc1)n1cnc2ccccc21` (stereo not drawn) [CBK304127], the viability at 28.5 h, 10 µM turned out to be 92.5%.

For `Cc1cc(C(F)(F)F)nc(NCc2ccco2)n1` [CBK269555], the viability at 28.5 h, 10 µM came out at 105%.

Regarding `CC(C)(C)NC(=O)Cn1nc(-c2cc3c(s2)CCC3)oc1=O` [CBK284714], the viability at 28.5 h, 10 µM was 101%.

Consider `CC(C)(C)c1csc(Nc2nc3cc4c(cc3s2)OCO4)n1` [CBK287491], for which the viability at 28.5 h, 10 µM is 93.9%.

As for `CCN(CC)C(=O)CN1CCC(Oc2nccnc2OC2CCCCC2)CC1` [CBK082866T], the viability at 28.5 h, 10 µM is 87%.

For `Cn1c(CO)nnc1[C@H]1C[C@@H](NC(=O)CCc2ccc(F)cc2F)C1` [CBK306796], the viability at 28.5 h, 10 µM was 86.4%.

As to `Cc1ccc(NC(=O)c2ccc3ccccc3n2)c(C)n1` [CBK200293], the viability at 28.5 h, 10 µM was 83.2%.

`Oc1cc(C(F)(F)F)nc2[nH]nc(-c3cccs3)c12` [CBK008498]: the viability at 28.5 h, 10 µM was 106%.

For the molecule `COc1ccccc1C1CCN(C(=O)c2ccc(C(C)(C)C)cc2)CC1` [CBK086469], the viability at 28.5 h, 10 µM was 84.3%.

On to `COc1ccc(S(=O)(=O)N2CCCCC2)cc1NC(=O)c1ccc(-c2nnn[nH]2)cc1` [CBK297128], for which the viability at 28.5 h, 10 µM worked out at 93%.

`Cn1ccc(CN2CCOC(c3nc(C(C)(C)C)cs3)C2)cc1=O` (stereo not drawn) [CBK305771]: the viability at 28.5 h, 10 µM is 108%.

For the molecule `CN1CCN(c2cc(N3CCN(S(=O)(=O)c4ccc5ccccc5c4)CC3)ccc2[N+](=O)[O-])CC1` [CBK264791], the viability at 28.5 h, 10 µM was determined as 97.6%.

With `COc1cc(CNCc2cccs2)ccc1OCC(N)=O` [CBK267620C], the viability at 28.5 h, 10 µM came out at 95.7%.

For `O=C(CSc1nnc(-c2ccco2)o1)N1CCN(CC(=O)N2CCCC2)CC1` [CBK295136], the viability at 28.5 h, 10 µM worked out at 111%.

With `Cn1c(CN2CCN(C3CCCC3)C(=O)C2)nc2ccccc21` [CBK281577], the viability at 28.5 h, 10 µM worked out at 100%.

Turning to `Cc1cc(C)nc(Nc2ncc(O)n2-c2ccccc2C)n1` [CBK263024], the viability at 28.5 h, 10 µM stood at 91.2%.
